Tests used:
[1] = test system: ABUTH (Abutilon theophrasti); experiment: Preemergence herbicidal evaluation; assay type: in vivo, Medic.; settings: preemergence, rated 4-5 weeks after treatment
[2] = test system: AMBEL (Ambrosia artemisifolia); experiment: Preemergence herbicidal evaluation; assay type: in vivo, L.; settings: preemergence, rated 4-5 weeks after treatment
In short: (§1)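 Test compound is applied in aqueous acetone to cups just after seeding. Cups are watered and maintained on greenhouse benches. Each cup is scored 0–9 by eye relative to a control after four to five weeks.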

[3] = test system: CHEAL (Chenopodium album); experiment: Preemergence herbicidal evaluation; assay type: in vivo, L.; settings: preemergence, rated 4-5 weeks after treatment
In short: as §1

GALAP (Galium aparine) [4] = experiment: Preemergence herbicidal evaluation; assay type: in vivo; settings: preemergence, rated 4-5 weeks after treatment
In short: as §1

IPOSS (Ipomoea Spp.) [5] = experiment: Preemergence herbicidal evaluation; assay type: in vivo; settings: rated 4-5 weeks after treatment
From the text: (§2) Results of herbicide evaluation are expressed on a rating scale (0-9). The scale is based upon a visual observation of plant stand, vigor, malformation, size, chlorosis and overall plant appearance as compared with a control.
The preemergence herbicidal activity of the test compounds of the present invention is exemplified by the following tests in which the seeds of a variety of monocotyledonous and dicotyledonous plants are separately mixed with potting soil and planted on top of approximately one inch of soil in separate pint cups. After planting, the cups are sprayed with the selected aqueous acetone solution containing test compound in sufficient quantity to provide the equivalent of about […] per hectare of test compound per cup. The treated cups are then placed on greenhouse benches, watered and cared for in accordance with conventional greenhouse procedures. From four to five weeks after treatment, the tests are terminated and each cup is examined and rated according to the rating system provided in Example 87. The plant species used and the compounds evaluated are the same as those shown in Example 87.

[6] = test system: ECHCG (Echinochloa crus-galli); experiment: Preemergence herbicidal evaluation; assay type: in vivo, (L.) Beau; settings: preemergence, rated 4-5 weeks after treatment
In short: as §1

SETVI (Setaria viridis) [7] = experiment: Preemergence herbicidal evaluation; assay type: in vivo, (L.) Beau; settings: preemergence, rated 4-5 weeks after treatment
In short: as §1

[8] = test system: GLXMAW (Soybean, Williams); experiment: Preemergence herbicidal evaluation; assay type: in vivo, Glycine max, (L.) Merr. cv Williams; settings: preemergence, rated 4-5 weeks after treatment
ORYSAT (Rice, Tebonnet) [9] = experiment: Preemergence herbicidal evaluation; assay type: in vivo, Oryza sativa, (L.) Tebonnet; settings: preemergence, rated 4-5 weeks after treatment
[10] = test system: TRZAWR (Wheat, Winter, cv Riband); experiment: Preemergence herbicidal evaluation; assay type: in vivo, Triticum aestivum; settings: preemergence, rated 4-5 weeks after treatment
In short: as §1

ZEAMX (Corn, Field) [11] = experiment: Preemergence herbicidal evaluation; assay type: in vivo, Zea mays, L.; settings: preemergence, rated 4-5 weeks after treatment
[12] = test system: ABUTH (Abutilon theophrasti); experiment: Postemergence herbicidal evaluation; assay type: in vivo, Medic.; settings: postemergence
In short: (§3)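 Seedlings grown for about two weeks were sprayed postemergence and then kept under standard greenhouse care. Injury was rated visually 4–5 weeks after treatment on a 0–9 scale against untreated controls, and ratings from repeat tests were averaged.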

[13] = test system: AMBEL (Ambrosia artemisifolia); experiment: Postemergence herbicidal evaluation; assay type: in vivo, L.; settings: postemergence
In short: as §3

[14] = test system: CHEAL (Chenopodium album); experiment: Postemergence herbicidal evaluation; assay type: in vivo, L.; settings: postemergence
In short: as §3

[15] = test system: IPOHE (Ipomoea hederacea); experiment: Postemergence herbicidal evaluation; assay type: in vivo, (L.) Jacq.; settings: postemergence
In short: as §3

[16] = test system: ECHCG (Echinochloa crus-galli); experiment: Postemergence herbicidal evaluation; assay type: in vivo, (L.) Beau; settings: postemergence
In short: as §3

SETVI (Setaria viridis) [17] = experiment: Postemergence herbicidal evaluation; assay type: in vivo, (L.) Beau; settings: postemergence
In short: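 Ratings use a 0-9 visual scale covering stand, vigor, malformation, size, chlorosis and appearance versus a control, scored 4-5 weeks post-spray. Roughly two-week-old seedlings received about 0.0040-1.000 kg/ha active, applied in 50/50 acetone/water with 0.5% TWEEN 20. Multiple tests per compound were averaged.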

GLXMA (Soybean) = experiment: Postemergence herbicidal evaluation; assay type: in vivo, Glycine max, (L.) Merr.; settings: postemergence
Method: (§4) In the tests, seedling plants are grown in jiffy flats for about two weeks. The test compounds are dispersed in 50/50 acetone/water mixtures containing 0.5% TWEEN® 20, a polyoxyethylene sorbitan monolaurate surfactant of Atlas Chemical Industries, in sufficient quantities to provide the equivalent of about 0.0040 kg to 1.000 kg per hectare of active compound when applied to the plants through a spray nozzle operating at 40 psi for a predetermined time. After spraying, the plants are placed on greenhouse benches and are cared for in accordance with conventional greenhouse procedures. From four to five weeks after treatment, the seedling plants are examined and rated according to the rating system set forth below. Where more than one test is involved for a given compound, the data are averaged.
as §2

ZEAMX (Corn, Field) [18] = experiment: Postemergence herbicidal evaluation; assay type: in vivo, Zea mays, L.; settings: postemergence
In short: as §3

GALAP (Galium aparine) [19] = experiment: Postemergence herbicidal evaluation; assay type: in vivo; settings: postemergence, rate 0.3000 kg/ha
In short: as §3

IPOSS (Ipomoea Spp.) [20] = experiment: Postemergence herbicidal evaluation; assay type: in vivo; settings: rate 0.3000 kg/ha
Method: as §4, §2

[21] = test system: GLXMAW (Soybean, Williams); experiment: Postemergence herbicidal evaluation; assay type: in vivo, Glycine max, (L.) Merr. cv Williams; settings: postemergence, rate 0.3000 kg/ha
In short: as §3

ORYSAT (Rice, Tebonnet) [22] = experiment: Postemergence herbicidal evaluation; assay type: in vivo, Oryza sativa, (L.) Tebonnet; settings: postemergence, rate 0.3000 kg/ha
In short: as §3

[23] = test system: TRZAWR (Wheat, Winter, cv Riband); experiment: Postemergence herbicidal evaluation; assay type: in vivo, Triticum aestivum; settings: postemergence, rate 0.3000 kg/ha
In short: as §3

Cn1c(C(F)(F)F)cc(=O)n(-c2ccc3snc(C4(O)N=C(c5ccccc5)NC4=O)c3c2)c1=O (stereo not drawn) [Compound 94, 3-[3-(4-hydroxy-5-oxo-2-phenyl-2-imidazolin-4-yl)-1,2-benzisothiazol-5-yl]-1-methyl-6-(trifluoromethyl)uracil]
Preemergence herbicidal rating ABUTH ([1]; rate 1.0000 kg/ha): 7.0 | Preemergence herbicidal rating AMBEL ([2]; rate 1.0000 kg/ha): 5.0 | Preemergence herbicidal rating CHEAL ([3]; rate 1.0000 kg/ha): 8.0 | Preemergence herbicidal rating GALAP (GALAP (Galium aparine) [4]; rate 1.0000 kg/ha): 8.0 | Preemergence herbicidal rating IPOSS (IPOSS (Ipomoea Spp.) [5]; rate 1.0000 kg/ha): 7.0 | Preemergence herbicidal rating ECHCG ([6]; rate 1.0000 kg/ha): 2.0 | Preemergence herbicidal rating SETVI (SETVI (Setaria viridis) [7]; rate 1.0000 kg/ha): 5.0 | Preemergence herbicidal rating GLXMAW ([8]; rate 1.0000 kg/ha): 5.0 | Preemergence herbicidal rating ORYSAT (ORYSAT (Rice, Tebonnet) [9]; rate 1.0000 kg/ha): 6.0 | Preemergence herbicidal rating TRZAWR ([10]; rate 1.0000 kg/ha): 5.0 | Preemergence herbicidal rating ZEAMX (ZEAMX (Corn, Field) [11]; rate 1.0000 kg/ha): 3.0

Cn1c(C(F)(F)F)cc(=O)n(-c2ccc3snc(C4(O)N=C(C(C)(C)C)NC4=O)c3c2)c1=O (stereo not drawn) [Compound 95, 3-[3-(2-tert-butyl-4-hydroxy-5-oxo-2-imidazolin-4-yl)-1,2-benzisothiazol-5-yl]-1-methyl-6-(trifluoromethyl)uracil]
ABUTH herbicidal rating ([12]; rate 0.0320 kg/ha): 9.0 | ABUTH herbicidal rating ([12]; rate 0.0620 kg/ha): 9.0 | AMBEL herbicidal rating ([13]; rate 0.0320 kg/ha): 4.0 | AMBEL herbicidal rating ([13]; rate 0.0620 kg/ha): 8.0 | CHEAL herbicidal rating ([14]; rate 0.0320 kg/ha): 8.0 | CHEAL herbicidal rating ([14]; rate 0.0620 kg/ha): 9.0 | IPOHE herbicidal rating ([15]; rate 0.0320 kg/ha): 8.0 | IPOHE herbicidal rating ([15]; rate 0.0620 kg/ha): 9.0 | ECHCG herbicidal rating ([16]; rate 0.0320 kg/ha): 2.0 | ECHCG herbicidal rating ([16]; rate 0.0620 kg/ha): 3.0 | SETVI herbicidal rating (SETVI (Setaria viridis) [17]; rate 0.0320 kg/ha): 4.0 | SETVI herbicidal rating (SETVI (Setaria viridis) [17]; rate 0.0620 kg/ha): 7.0 | GLXMA herbicidal rating (GLXMA (Soybean); rate 0.0320 kg/ha): 8.0 | GLXMA herbicidal rating (GLXMA (Soybean); rate 0.0620 kg/ha): 8.0 | ZEAMX herbicidal rating (ZEAMX (Corn, Field) [18]; rate 0.0320 kg/ha): 3.5 | ZEAMX herbicidal rating (ZEAMX (Corn, Field) [18]; rate 0.0620 kg/ha): 3.5

Cn1c(C(F)(F)F)cc(=O)n(-c2ccc3snc(C4(O)C(=O)NC(=N)C4(C)C)c3c2)c1=O (stereo not drawn) [Compound 96]
ABUTH herbicidal rating ([12]; rate 0.0320 kg/ha): 3.0 | ABUTH herbicidal rating ([12]; rate 0.0620 kg/ha): 4.0 | ABUTH herbicidal rating ([12]; rate 0.3000 kg/ha): 9.0 | AMBEL herbicidal rating ([13]; rate 0.0320 kg/ha): 4.0 | AMBEL herbicidal rating ([13]; rate 0.0620 kg/ha): 5.0 | AMBEL herbicidal rating ([13]; rate 0.3000 kg/ha): 6.0 | CHEAL herbicidal rating ([14]; rate 0.0320 kg/ha): 3.0 | CHEAL herbicidal rating ([14]; rate 0.0620 kg/ha): 4.0 | CHEAL herbicidal rating ([14]; rate 0.3000 kg/ha): 9.0 | GALAP herbicidal rating (GALAP (Galium aparine) [19]): 0.0 | IPOHE herbicidal rating ([15]; rate 0.0320 kg/ha): 3.0 | IPOHE herbicidal rating ([15]; rate 0.0620 kg/ha): 6.0 | IPOSS herbicidal rating (IPOSS (Ipomoea Spp.) [20]): 3.0 | ECHCG herbicidal rating ([16]; rate 0.0320 kg/ha): 1.0 | ECHCG herbicidal rating ([16]; rate 0.0620 kg/ha): 2.0 | ECHCG herbicidal rating ([16]; rate 0.3000 kg/ha): 0.0 | SETVI herbicidal rating (SETVI (Setaria viridis) [17]; rate 0.0320 kg/ha): 2.0 | SETVI herbicidal rating (SETVI (Setaria viridis) [17]; rate 0.0620 kg/ha): 2.0 | SETVI herbicidal rating (SETVI (Setaria viridis) [17]; rate 0.3000 kg/ha): 4.0 | GLXMAW herbicidal rating [21]: 5.0 | GLXMA herbicidal rating (GLXMA (Soybean); rate 0.0320 kg/ha): 5.5 | GLXMA herbicidal rating (GLXMA (Soybean); rate 0.0620 kg/ha): 6.0 | ORYSAT herbicidal rating (ORYSAT (Rice, Tebonnet) [22]): 0.0 | TRZAWR herbicidal rating [23]: 0.0 | ZEAMX herbicidal rating (ZEAMX (Corn, Field) [18]; rate 0.0320 kg/ha): 3.0 | ZEAMX herbicidal rating (ZEAMX (Corn, Field) [18]; rate 0.0620 kg/ha): 3.0 | ZEAMX herbicidal rating (ZEAMX (Corn, Field) [18]; rate 0.3000 kg/ha): 2.0 | Preemergence herbicidal rating ABUTH ([1]; rate 0.3000 kg/ha): 6.0 | Preemergence herbicidal rating AMBEL ([2]; rate 0.3000 kg/ha): 0.0 | Preemergence herbicidal rating CHEAL ([3]; rate 0.3000 kg/ha): 7.0 | Preemergence herbicidal rating GALAP (GALAP (Galium aparine) [4]; rate 0.3000 kg/ha): 6.0 | Preemergence herbicidal rating IPOSS (IPOSS (Ipomoea Spp.) [5]; rate 0.3000 kg/ha): 4.0 | Preemergence herbicidal rating ECHCG ([6]; rate 0.3000 kg/ha): 0.0 | Preemergence herbicidal rating SETVI (SETVI (Setaria viridis) [7]; rate 0.3000 kg/ha): 0.0 | Preemergence herbicidal rating GLXMAW ([8]; rate 0.3000 kg/ha): 0.0 | Preemergence herbicidal rating ORYSAT (ORYSAT (Rice, Tebonnet) [9]; rate 0.3000 kg/ha): 0.0 | Preemergence herbicidal rating TRZAWR ([10]; rate 0.3000 kg/ha): 0.0 | Preemergence herbicidal rating ZEAMX (ZEAMX (Corn, Field) [11]; rate 0.3000 kg/ha): 0.0

CCN=C1NC(=O)C(OC)(c2nsc3ccc(-n4c(=O)cc(C(F)(F)F)n(C)c4=O)cc23)N1 (stereo not drawn) [Compound 98, 3-[3[4-methoxy-2-(ethylimino)-5-oxo-4-imidazolidinyl]-1,2-benzisothiazol-5-yl]-1-methyl-6-(trifluoromethyl)uracil]
ABUTH herbicidal rating ([12]; rate 0.0320 kg/ha): 9.0 | ABUTH herbicidal rating ([12]; rate 0.0620 kg/ha): 9.0 | AMBEL herbicidal rating ([13]; rate 0.0320 kg/ha): 8.0 | AMBEL herbicidal rating ([13]; rate 0.0620 kg/ha): 8.0 | CHEAL herbicidal rating ([14]; rate 0.0320 kg/ha): 6.0 | CHEAL herbicidal rating ([14]; rate 0.0620 kg/ha): 8.0 | IPOHE herbicidal rating ([15]; rate 0.0320 kg/ha): 9.0 | IPOHE herbicidal rating ([15]; rate 0.0620 kg/ha): 8.0 | ECHCG herbicidal rating ([16]; rate 0.0320 kg/ha): 2.0 | ECHCG herbicidal rating ([16]; rate 0.0620 kg/ha): 2.0 | SETVI herbicidal rating (SETVI (Setaria viridis) [17]; rate 0.0320 kg/ha): 3.0 | SETVI herbicidal rating (SETVI (Setaria viridis) [17]; rate 0.0620 kg/ha): 3.0 | GLXMA herbicidal rating (GLXMA (Soybean); rate 0.0320 kg/ha): 8.0 | GLXMA herbicidal rating (GLXMA (Soybean); rate 0.0620 kg/ha): 8.0 | ZEAMX herbicidal rating (ZEAMX (Corn, Field) [18]; rate 0.0320 kg/ha): 3.5 | ZEAMX herbicidal rating (ZEAMX (Corn, Field) [18]; rate 0.0620 kg/ha): 3.5

Reference: patent US6706663B2, “Herbicidal 3-heterocyclic substituted benzisothiazole and benzisoxazole compounds” (Wyeth, priority 2000, dated 2004)
